# Test results from patent US20050085463A1 (priority 2003, published 2005).
# Assays:
# M2 muscarinic receptor [1] = target: T1, M2 muscarinic receptor (Homo sapiens, UniProt P08172); test: R-SAT agonist assay; details: R-SAT; relative to carbachol; No response/nr = no agonist activity up to 10 μM
# T1 sequence (P08172 1-466): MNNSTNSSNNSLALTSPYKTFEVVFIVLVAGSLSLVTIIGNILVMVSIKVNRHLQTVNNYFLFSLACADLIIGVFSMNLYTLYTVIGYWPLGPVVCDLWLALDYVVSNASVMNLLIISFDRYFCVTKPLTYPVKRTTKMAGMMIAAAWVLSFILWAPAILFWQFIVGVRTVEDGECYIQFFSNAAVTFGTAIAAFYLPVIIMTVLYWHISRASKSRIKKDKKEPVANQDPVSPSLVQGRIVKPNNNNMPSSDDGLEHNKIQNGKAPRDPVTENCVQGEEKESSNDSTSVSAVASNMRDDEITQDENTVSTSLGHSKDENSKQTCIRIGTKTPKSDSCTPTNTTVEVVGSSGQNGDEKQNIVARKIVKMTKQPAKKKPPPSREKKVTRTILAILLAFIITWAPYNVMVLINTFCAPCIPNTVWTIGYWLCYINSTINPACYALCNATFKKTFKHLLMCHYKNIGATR
# M4 muscarinic receptor [2] = target: T2, M4 muscarinic receptor (Homo sapiens, UniProt P08173); test: R-SAT agonist assay; assay type: cell-based; parameters: expressed in transfected cells; host or cells: NIH/3T3; details: relative to carbachol, No response/nr = no agonist activity up to 10 μM
# T2 sequence (P08173 1-479): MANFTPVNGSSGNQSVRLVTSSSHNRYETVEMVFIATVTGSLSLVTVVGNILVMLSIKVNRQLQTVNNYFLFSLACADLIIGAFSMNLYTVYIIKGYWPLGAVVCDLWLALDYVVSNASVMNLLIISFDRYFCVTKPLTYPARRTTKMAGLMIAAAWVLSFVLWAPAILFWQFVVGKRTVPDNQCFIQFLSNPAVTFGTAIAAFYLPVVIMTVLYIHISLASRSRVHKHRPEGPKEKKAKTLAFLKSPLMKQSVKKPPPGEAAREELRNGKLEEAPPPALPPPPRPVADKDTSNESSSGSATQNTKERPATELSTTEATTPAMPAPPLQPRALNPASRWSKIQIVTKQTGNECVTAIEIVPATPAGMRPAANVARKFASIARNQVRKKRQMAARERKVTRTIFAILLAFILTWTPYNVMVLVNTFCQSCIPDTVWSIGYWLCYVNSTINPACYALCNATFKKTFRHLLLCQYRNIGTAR
# M1 muscarinic receptor [3] = target: T3, M1 muscarinic receptor (Homo sapiens, UniProt P11229); test: R-SAT agonist assay; assay type: cell-based; parameters: expressed in transfected cells; host or cells: NIH/3T3; details: R-SAT; relative to carbachol; No response/nr = no agonist activity up to 10 μM
# T3 sequence (P11229 1-460): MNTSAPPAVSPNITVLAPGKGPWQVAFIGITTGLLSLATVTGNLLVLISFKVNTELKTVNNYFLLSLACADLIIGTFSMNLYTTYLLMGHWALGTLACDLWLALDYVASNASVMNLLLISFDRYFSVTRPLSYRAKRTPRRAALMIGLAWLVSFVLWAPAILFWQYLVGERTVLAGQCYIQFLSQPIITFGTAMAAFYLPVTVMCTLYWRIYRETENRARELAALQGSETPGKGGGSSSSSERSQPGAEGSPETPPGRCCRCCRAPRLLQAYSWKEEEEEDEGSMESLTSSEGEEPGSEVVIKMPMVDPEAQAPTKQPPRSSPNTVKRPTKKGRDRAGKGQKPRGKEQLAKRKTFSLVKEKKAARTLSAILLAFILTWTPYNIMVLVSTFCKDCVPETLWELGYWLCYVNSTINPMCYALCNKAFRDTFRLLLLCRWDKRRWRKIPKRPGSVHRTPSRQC
# M3 muscarinic receptor [4] = target: T4, M3 muscarinic receptor (Homo sapiens, UniProt P20309); test: R-SAT agonist assay; details: R-SAT; relative to carbachol; No response/nr = no agonist activity up to 10 μM
# T4 sequence (P20309 whole entry): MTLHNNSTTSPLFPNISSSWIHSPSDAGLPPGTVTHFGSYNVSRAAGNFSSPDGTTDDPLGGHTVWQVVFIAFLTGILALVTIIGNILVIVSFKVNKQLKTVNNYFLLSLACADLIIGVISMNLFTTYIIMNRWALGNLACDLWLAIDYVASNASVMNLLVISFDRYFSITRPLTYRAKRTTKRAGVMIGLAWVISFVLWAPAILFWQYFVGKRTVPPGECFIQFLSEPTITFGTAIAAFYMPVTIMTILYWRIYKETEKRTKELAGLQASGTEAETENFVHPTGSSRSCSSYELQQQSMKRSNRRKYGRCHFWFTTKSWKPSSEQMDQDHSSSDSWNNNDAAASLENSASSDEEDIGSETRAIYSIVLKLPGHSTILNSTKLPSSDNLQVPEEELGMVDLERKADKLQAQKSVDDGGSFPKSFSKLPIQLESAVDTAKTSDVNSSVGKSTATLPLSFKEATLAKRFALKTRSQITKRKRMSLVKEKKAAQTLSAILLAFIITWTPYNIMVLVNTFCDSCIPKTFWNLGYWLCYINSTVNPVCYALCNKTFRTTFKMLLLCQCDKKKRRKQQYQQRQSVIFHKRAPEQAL
# M5 muscarinic receptor [5] = target: T5, M5 muscarinic receptor (Homo sapiens, UniProt P08912); test: R-SAT agonist assay; assay type: cell-based; parameters: expressed in transfected cells; host or cells: NIH/3T3; details: R-SAT; relative to carbachol; No response/nr = no agonist activity up to 10 μM
# T5 sequence (P08912 1-532): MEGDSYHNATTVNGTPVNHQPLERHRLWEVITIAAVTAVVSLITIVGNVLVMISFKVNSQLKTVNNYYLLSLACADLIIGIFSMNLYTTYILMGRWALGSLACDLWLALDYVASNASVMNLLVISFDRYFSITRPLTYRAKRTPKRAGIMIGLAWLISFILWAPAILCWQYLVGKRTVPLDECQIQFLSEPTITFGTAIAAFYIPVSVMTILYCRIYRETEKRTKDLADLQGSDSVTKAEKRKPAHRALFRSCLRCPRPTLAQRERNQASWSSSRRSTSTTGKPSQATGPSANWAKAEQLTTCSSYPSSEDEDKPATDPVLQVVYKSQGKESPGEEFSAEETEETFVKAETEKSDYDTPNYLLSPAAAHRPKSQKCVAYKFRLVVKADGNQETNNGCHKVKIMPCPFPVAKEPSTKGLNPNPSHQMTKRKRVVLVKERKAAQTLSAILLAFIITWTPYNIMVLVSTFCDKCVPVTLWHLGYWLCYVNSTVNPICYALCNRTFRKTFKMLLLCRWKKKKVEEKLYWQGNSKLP
# 5-HT1A receptor [6] = target: T6, 5-HT1A receptor (Homo sapiens, UniProt P08908); test: R-SAT competitive antagonist assay
# T6 sequence (P08908 1-422): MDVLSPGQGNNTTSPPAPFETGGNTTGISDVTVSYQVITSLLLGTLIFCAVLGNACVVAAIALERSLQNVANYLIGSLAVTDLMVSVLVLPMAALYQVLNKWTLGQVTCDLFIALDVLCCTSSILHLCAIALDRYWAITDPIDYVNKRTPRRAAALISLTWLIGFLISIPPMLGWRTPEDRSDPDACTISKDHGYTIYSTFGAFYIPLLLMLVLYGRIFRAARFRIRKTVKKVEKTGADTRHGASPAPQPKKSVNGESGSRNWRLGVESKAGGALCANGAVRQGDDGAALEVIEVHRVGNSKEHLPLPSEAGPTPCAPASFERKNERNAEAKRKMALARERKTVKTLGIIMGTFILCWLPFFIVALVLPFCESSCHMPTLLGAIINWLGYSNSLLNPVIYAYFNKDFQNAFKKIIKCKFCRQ
# [7] = target: T7, α1A (Alpha 1A) adrenergic receptor (Homo sapiens, UniProt P35348); test: cell-based
# T7 sequence (P35348 1-466): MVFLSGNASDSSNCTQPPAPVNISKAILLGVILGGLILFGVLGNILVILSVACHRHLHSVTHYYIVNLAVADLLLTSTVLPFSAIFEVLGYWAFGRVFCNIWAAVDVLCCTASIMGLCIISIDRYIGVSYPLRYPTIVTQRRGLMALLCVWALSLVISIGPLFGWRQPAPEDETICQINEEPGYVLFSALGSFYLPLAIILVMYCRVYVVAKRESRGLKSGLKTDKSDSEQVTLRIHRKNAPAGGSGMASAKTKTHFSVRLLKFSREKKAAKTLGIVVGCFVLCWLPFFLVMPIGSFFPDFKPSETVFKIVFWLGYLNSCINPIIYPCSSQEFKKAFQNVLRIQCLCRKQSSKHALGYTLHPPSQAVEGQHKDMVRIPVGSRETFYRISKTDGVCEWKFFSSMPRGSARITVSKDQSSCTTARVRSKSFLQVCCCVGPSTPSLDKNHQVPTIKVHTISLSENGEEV
# M3 muscarinic receptor [8] = target: T4, M3 muscarinic receptor; test: R-SAT competitive antagonist assay; assay type: cell-based; details: nr = no significant antagonist or inverse agonist activity up to 1 μM, nr* = nr but significant agonist activity
# 5-HT1A receptor [9] = target: T6, 5-HT1A receptor; test: R-SAT agonist assay; assay type: cell-based; parameters: expressed in transfected cells; host or cells: NIH/3T3; details: relative to 8-OH-DPAT
# M4 muscarinic receptor [10] = target: T2, M4 muscarinic receptor; test: R-SAT competitive antagonist assay; details: nr = no significant antagonist or inverse agonist activity up to 1 μM, nr* = nr but significant agonist activity
# [11] = target: T7, α1A (Alpha 1A) adrenergic receptor; details: R-SAT; nr = no significant antagonist or inverse agonist activity up to 1 μM; nr* = nr but significant agonist activity
# M5 muscarinic receptor [12] = target: T5, M5 muscarinic receptor; test: R-SAT competitive antagonist assay; details: nr = no significant antagonist or inverse agonist activity up to 1 μM, nr* = nr but significant agonist activity
# M2 muscarinic receptor [13] = target: T1, M2 muscarinic receptor; test: R-SAT competitive antagonist assay; assay type: cell-based; parameters: expressed in transfected cells; host or cells: NIH/3T3; details: nr = no significant antagonist or inverse agonist activity up to 1 μM, nr* = nr but significant agonist activity
# 5-HT6A receptor = 5-HT6A receptor (Homo sapiens, UniProt P50406); test: R-SAT inverse agonist assay; details: R-SAT; nr = no significant antagonist or inverse agonist activity up to 1 μM
# Chain of 5-HT6A receptor (P50406 whole entry): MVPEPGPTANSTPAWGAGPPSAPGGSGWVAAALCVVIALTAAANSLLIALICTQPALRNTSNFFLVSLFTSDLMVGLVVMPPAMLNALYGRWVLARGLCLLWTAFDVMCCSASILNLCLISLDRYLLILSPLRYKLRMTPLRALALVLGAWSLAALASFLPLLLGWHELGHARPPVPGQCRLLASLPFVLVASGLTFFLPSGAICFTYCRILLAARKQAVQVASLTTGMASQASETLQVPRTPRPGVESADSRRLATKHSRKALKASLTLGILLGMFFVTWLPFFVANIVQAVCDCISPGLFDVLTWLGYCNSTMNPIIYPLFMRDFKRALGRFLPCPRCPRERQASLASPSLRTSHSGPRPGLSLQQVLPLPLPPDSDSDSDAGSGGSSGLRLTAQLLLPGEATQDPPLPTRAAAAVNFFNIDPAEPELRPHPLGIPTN
# 5-HT7A receptor = 5-HT7A receptor (Homo sapiens, UniProt P34969); test: R-SAT inverse agonist assay
# Chain of 5-HT7A receptor (P34969 1-445 isoform P34969-2): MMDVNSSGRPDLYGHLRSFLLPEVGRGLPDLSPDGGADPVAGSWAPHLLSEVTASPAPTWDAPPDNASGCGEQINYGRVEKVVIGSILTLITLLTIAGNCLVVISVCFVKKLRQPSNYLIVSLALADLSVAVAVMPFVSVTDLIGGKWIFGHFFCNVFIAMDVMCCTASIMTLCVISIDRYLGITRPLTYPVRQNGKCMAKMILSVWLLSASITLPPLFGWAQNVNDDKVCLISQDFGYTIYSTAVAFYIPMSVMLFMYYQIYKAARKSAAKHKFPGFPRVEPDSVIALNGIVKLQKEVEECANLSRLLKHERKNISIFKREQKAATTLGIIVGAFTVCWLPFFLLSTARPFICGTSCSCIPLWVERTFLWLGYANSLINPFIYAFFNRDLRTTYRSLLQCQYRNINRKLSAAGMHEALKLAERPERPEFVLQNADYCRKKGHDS
# M1 muscarinic receptor [14] = target: T3, M1 muscarinic receptor; test: R-SAT competitive antagonist assay; assay type: cell-based; parameters: expressed in transfected cells; host or cells: NIH/3T3; details: nr = no significant antagonist or inverse agonist activity up to 1 μM, nr* = nr but significant agonist activity
# [15] = target: human monoaminergic receptors; test: R-SAT functional profiling; assay type: cell-based; details: data not shown
# Source text: It has long been appreciated that antagonism of central muscarinic receptors can attenuate the EPS induced by antipsychotics (Miller and Hiley 1974). […] .
compound,measurement,setting,value
Cc1cc2c(s1)Nc1ccccc1N=C2N1CCNCC1 [N-desmethylolanzapine],M2 Efficacy,M2 muscarinic receptor [1],No response
same,M4 Efficacy,M4 muscarinic receptor [2],No response
same,M1 Efficacy,M1 muscarinic receptor [3],No response
same,M3 Efficacy,M3 muscarinic receptor [4],No response
same,M5 Efficacy,M5 muscarinic receptor [5],No response
Cc1cc2c(s1)Nc1ccccc1N=C2N1CCN(C)CC1 [Olanzapine],M2 Efficacy,M2 muscarinic receptor [1],No response
same,M4 Efficacy,M4 muscarinic receptor [2],No response
same,M5 Efficacy,M5 muscarinic receptor [5],No response
CCCCCCOc1nsnc1C1=CCCN(C)C1 [Xanomeline],M4 Efficacy,M4 muscarinic receptor [2],116 ± 9%
same,M5 Efficacy,M5 muscarinic receptor [5],86 ± 12%
"O=C1Cc2cc(CCN3CCN(c4nsc5ccccc45)CC3)c(Cl)cc2N1 [Ziprasidone, reference compound]",Ki,5-HT1A receptor [6],> 1000 nM
same,"pKi 5-HT1A, competitive antagonist","5-HT1A receptor [6]; R-SAT, nr = no significant antagonist or inverse agonist activity up to 1 μM, nr* = nr but significant agonist activity",nr* and nr*^2
same,Ki,[7],39.8 nM
same,"pKi M3, competitive antagonist",M3 muscarinic receptor [8],nr
same,agonist efficacy at human 5-HT1A receptors,5-HT1A receptor [9],< 30%
same,"pKi M4, competitive antagonist",M4 muscarinic receptor [10],nr
same,"pKi α1A, competitive antagonist",[11],7.4 ± 0.2
same,"pKi M5, competitive antagonist",M5 muscarinic receptor [12],nr
same,"pKi M2, competitive antagonist",M2 muscarinic receptor [13],nr
same,"pEC50 5HT6A, inverse agonist",5-HT6A receptor,nr
same,EC50,5-HT7A receptor,50.1 nM
same,"pEC50 5HT7A, inverse agonist","5-HT7A receptor; R-SAT, nr = no significant antagonist or inverse agonist activity up to 1 μM",7.3 ± 0.1
same,"pKi M1, competitive antagonist",M1 muscarinic receptor [14],nr
C[N+]1([O-])CCN(C2=Nc3cc(Cl)ccc3Nc3ccccc32)CC1 [clozapine-N-oxide],"pKi, functional activity at human monoaminergic receptors",[15],< 6.0
